The values that follow are results of earlier work, collected in patent publication US12667556B2, “Extended release injectable formulations comprising an isoxazoline active agent, methods and uses thereof” (BOEHRINGER INGELHEIM ANIMAL HEALTH USA INC., priority 2015, dated 2026).

The series has as its system fleas.

SMILES strings stand for the structures. In brackets after ≈: the same amount, converted by molar mass.

Turning to `O=C(CNC(=O)c1ccc(C2=NOC(c3cc(Cl)cc(C(F)(F)F)c3)(C(F)(F)F)C2)c2ccccc12)NCC(F)(F)F` (centres unmarked) [compound (IIc), 4-[5-[3-chloro-5-(trifluoromethyl)phenyl]-4,5-dihydro-5-(trifluoromethyl)-3-isoxazolyl]-N-[2-oxo-2-[(2,2,2-trifluoroethyl)amino]ethyl]-1-naphthalenecarboxamide], the “EC90 (plasma concentration) against fleas on dogs” value (Letendre et al., Veterinary Parasitology 201 (2014) 190-197) was 0.023 µg/mL (≈ 0.0367 µM). Moreover, the “plasma concentration known to effectively control fleas on dogs” value (known, literature) is “about 20 ng/ml”.
